Laboratory results as given in the NIST ThermoML archive (doi:10.1021/je300737t).
± gives the expanded uncertainty stated by the source.

Columns and labels:
[1] = 101 kPa, Liquid; for mass density: Pycnometric method
[2] = xn = mol fraction of the nth substance listed; conditions: 101 kPa, Liquid; for mass density: Pycnometric method

CCCCOCCO [2-butoxyethan-1-ol]
viscosity ([1]; 298.15 K): 2.782 ± 0.065 mPa·s | mass density ([1]; 298.15 K): 896.16 ± 1 kg/m3 | viscosity ([1]; 303.15 K): 2.499 ± 0.059 mPa·s | mass density ([1]; 303.15 K): 892.74 ± 1 kg/m3 | viscosity ([1]; 308.15 K): 2.206 ± 0.053 mPa·s | mass density ([1]; 308.15 K): 888.88 ± 1 kg/m3 | viscosity ([1]; 313.15 K): 1.946 ± 0.048 mPa·s | mass density ([1]; 313.15 K): 884.29 ± 1 kg/m3

CCCCOCCO [2-butoxyethan-1-ol] + O
mass density ([2]; 298.15 K, x1 = 0.017): 993.26 ± 3 kg/m3 | mass density ([2]; 298.15 K, x1 = 0.037): 986.46 ± 3 kg/m3 | mass density ([2]; 298.15 K, x1 = 0.061): 976.33 ± 3 kg/m3 | mass density ([2]; 298.15 K, x1 = 0.092): 967.1 ± 3 kg/m3 | mass density ([2]; 298.15 K, x1 = 0.132): 948.1 ± 10 kg/m3 | mass density ([2]; 298.15 K, x1 = 1): 896.16 ± 1 kg/m3 | viscosity ([2]; 298.15 K, x1 = 0.017): 1.284 ± 0.035 mPa·s | viscosity ([2]; 298.15 K, x1 = 0.037): 1.849 ± 0.045 mPa·s | viscosity ([2]; 298.15 K, x1 = 0.061): 2.45 ± 0.056 mPa·s | viscosity ([2]; 298.15 K, x1 = 0.092): 2.998 ± 0.069 mPa·s | viscosity ([2]; 298.15 K, x1 = 0.132): 3.918 ± 0.089 mPa·s | viscosity ([2]; 298.15 K, x1 = 1): 2.782 ± 0.065 mPa·s | mass density ([2]; 303.15 K, x1 = 0.017): 990.82 ± 3 kg/m3 | mass density ([2]; 303.15 K, x1 = 0.037): 982.92 ± 3 kg/m3 | mass density ([2]; 303.15 K, x1 = 0.061): 974.23 ± 3 kg/m3 | mass density ([2]; 303.15 K, x1 = 0.092): 964.31 ± 3 kg/m3 | mass density ([2]; 303.15 K, x1 = 0.132): 944.74 ± 10 kg/m3 | mass density ([2]; 303.15 K, x1 = 1): 892.74 ± 1 kg/m3 | viscosity ([2]; 303.15 K, x1 = 0.017): 1.131 ± 0.033 mPa·s | viscosity ([2]; 303.15 K, x1 = 0.037): 1.622 ± 0.041 mPa·s | viscosity ([2]; 303.15 K, x1 = 0.061): 2.161 ± 0.051 mPa·s | viscosity ([2]; 303.15 K, x1 = 0.092): 2.635 ± 0.061 mPa·s | viscosity ([2]; 303.15 K, x1 = 0.132): 3.394 ± 0.078 mPa·s | viscosity ([2]; 303.15 K, x1 = 1): 2.499 ± 0.059 mPa·s | mass density ([2]; 308.15 K, x1 = 0.017): 988.89 ± 3 kg/m3 | mass density ([2]; 308.15 K, x1 = 0.037): 980.38 ± 3 kg/m3 | mass density ([2]; 308.15 K, x1 = 0.061): 971.37 ± 3 kg/m3 | mass density ([2]; 308.15 K, x1 = 0.092): 961.45 ± 3 kg/m3 | mass density ([2]; 308.15 K, x1 = 0.132): 941.59 ± 10 kg/m3 | mass density ([2]; 308.15 K, x1 = 1): 888.88 ± 1 kg/m3 | viscosity ([2]; 308.15 K, x1 = 0.017): 0.9936 ± 0.03 mPa·s | viscosity ([2]; 308.15 K, x1 = 0.037): 1.465 ± 0.038 mPa·s | viscosity ([2]; 308.15 K, x1 = 0.061): 1.916 ± 0.046 mPa·s | viscosity ([2]; 308.15 K, x1 = 0.092): 2.334 ± 0.054 mPa·s | viscosity ([2]; 308.15 K, x1 = 0.132): 2.921 ± 0.068 mPa·s | viscosity ([2]; 308.15 K, x1 = 1): 2.206 ± 0.053 mPa·s | mass density ([2]; 313.15 K, x1 = 0.017): 985.94 ± 3 kg/m3 | mass density ([2]; 313.15 K, x1 = 0.037): 977.64 ± 3 kg/m3 | mass density ([2]; 313.15 K, x1 = 0.061): 968.64 ± 3 kg/m3 | mass density ([2]; 313.15 K, x1 = 0.092): 958.48 ± 3 kg/m3 | mass density ([2]; 313.15 K, x1 = 0.132): 937.57 ± 10 kg/m3 | mass density ([2]; 313.15 K, x1 = 1): 884.29 ± 1 kg/m3 | viscosity ([2]; 313.15 K, x1 = 0.017): 0.8871 ± 0.029 mPa·s | viscosity ([2]; 313.15 K, x1 = 0.037): 1.302 ± 0.036 mPa·s | viscosity ([2]; 313.15 K, x1 = 0.061): 1.754 ± 0.043 mPa·s | viscosity ([2]; 313.15 K, x1 = 0.092): 2.054 ± 0.049 mPa·s | viscosity ([2]; 313.15 K, x1 = 0.132): 2.539 ± 0.059 mPa·s | viscosity ([2]; 313.15 K, x1 = 1): 1.946 ± 0.048 mPa·s
